In US12391737B2, “Soluble NPY2 receptor agonists” (Boehringer Ingelheim International GmbH, priority 2020, dated 2025):

Assay: Solubility determination
Conditions: for Sol6: pH 6; for Sol7: pH 7
Description: Peptides (as TFA salts) were weighed out in a filter unit (Mini-UniPrep Syringeless Filter 0.45 μm, Whatman), and 0.1 M sodium diphosphate buffer at pH 6.4 or 7.0 was added to achieve 10 mg/ml final concentration. The peptide was dissolved by shaking the filter unit horizontally at 600 rpm for 2 hours at room temperature. The sample was filtered, to remove any insoluble particles and diluted to 1 mg/ml in 50% acetonitrile. The control was prepared by weighing out the corresponding peptide and dissolving it in 50% acetonitrile to final concentration of 1 mg/ml. Both the control and sample were analysed with reversed phase chromatography. The area under the peak of the sample was compared to the control and the solubility was calculated based on that ratio.
The pH was measured and recorded for each sample.
System: UltiMate 3000 UPLC, ThermoFisher
Mobile phase A: 5% acetonitrile, 95% water, 0.03% trifluoracetic acid.
Mobile phase B: 95% acetonitrile, 5% water, 0.03% trifluoracetic acid.
Gradient: 0-100% mobile phase B (2 mins.)
Column temperature: 50° C.

CC(C)CC(=O)N[C@@H](C)C(=O)N1CCC[C@H]1C(=O)N[C@@H](CCC(=O)O)C(=O)N[C@@H](CCCCNC(=O)CCCCCNC(=O)CC[C@H](NC(=O)CCCCCCCCCCCCCCCCC(=O)O)C(=O)O)C(=O)N1CCC[C@H]1C(=O)N[C@@H](CCC(=O)O)C(=O)N[C@@H](C)C(=O)N[C@@H](CC(=O)O)C(=O)N[C@@H](C)C(=O)N[C@@H](CCC(=O)O)C(=O)N1CCC[C@H]1C(=O)N[C@@H](CCC(=O)O)C(=O)N[C@@H](CCC(=O)O)C(=O)N[C@@H](CC(C)C)C(=O)N[C@@H](CCC(N)=O)C(=O)N[C@@H](CCCNC(=N)N)C(=O)N[C@@H](Cc1ccc(O)cc1)C(=O)N[C@@H](Cc1ccc(O)cc1)C(=O)N[C@H](C(=O)N[C@@H](C)C(=O)N[C@@H](CC(C)C)C(=O)N[C@@H](CCCNC(=N)N)C(=O)N[C@@H](Cc1c[nH]cn1)C(=O)N[C@@H](Cc1ccc(O)cc1)C(=O)N[C@@H](Cc1ccc(O)cc1)C(=O)N[C@@H](CC(N)=O)C(=O)N[C@@H](Cc1c[nH]c2ccccc12)C(=O)N[C@@H](CC(C)C)C(=O)N[C@H](C(=O)N[C@@H](CCCNC(=N)N)C(=O)N[C@@H](CCC(N)=O)C(=O)N[C@@H](CCCNC(=N)N)C(=O)N[C@@H](Cc1ccc(O)cc1)C(N)=O)[C@@H](C)O)C(C)C [Compound 6, N{alpha-4}-(3-methylbutanoyl)-N{epsilon-7}-(6-[(4S)-4-carboxy-4-(17-carboxyheptadecanamido)butanamido]hexanoyl)[4A,7K,9E,10A,13E,18Q,22V,23A,28Y,30W,31L]-hPYY(4-36)]
Sol6: 9.6 mg/mL | Sol7: 10.0 mg/mL

CC(C)CC(=O)N[C@@H](C)C(=O)N1CCC[C@H]1C(=O)N[C@@H](C)C(=O)N[C@@H](CCCCNC(=O)CCCCCNC(=O)CC[C@H](NC(=O)CCCCCCCCCCCCCCCCC(=O)O)C(=O)O)C(=O)N1CCC[C@H]1C(=O)N[C@@H](CCC(=O)O)C(=O)N[C@@H](C)C(=O)N[C@@H](C)C(=O)N[C@@H](C)C(=O)N[C@@H](CCC(=O)O)C(=O)N1CCC[C@H]1C(=O)N[C@@H](CCC(=O)O)C(=O)N[C@@H](CCC(=O)O)C(=O)N[C@@H](CC(C)C)C(=O)N[C@@H](CCC(N)=O)C(=O)N[C@@H](CCCNC(=N)N)C(=O)N[C@@H](Cc1ccc(O)cc1)C(=O)N[C@@H](Cc1ccc(O)cc1)C(=O)N[C@H](C(=O)N[C@@H](C)C(=O)N[C@@H](CC(C)C)C(=O)N[C@@H](CCCNC(=N)N)C(=O)N[C@@H](Cc1c[nH]cn1)C(=O)N[C@@H](Cc1ccc(O)cc1)C(=O)N[C@@H](Cc1ccc(O)cc1)C(=O)N[C@@H](CC(N)=O)C(=O)N[C@@H](Cc1c[nH]c2ccccc12)C(=O)N[C@@H](CC(C)C)C(=O)N[C@H](C(=O)N[C@@H](CCCNC(=N)N)C(=O)N[C@@H](CCC(N)=O)C(=O)N[C@@H](CCCNC(=N)N)C(=O)N[C@@H](Cc1ccc(O)cc1)C(N)=O)[C@@H](C)O)C(C)C [Compound 10, N{alpha-4}-(3-methylbutanoyl)-N{epsilon-7}-(6-[(4S)-4-carboxy-4-(17-carboxyheptadecanamido)butanamido]hexanoyl)[4A,6A,7K,9E,10A,11A,13E,18Q,22V,23A,28Y,30W,31L]-hPYY(4-36)]
Sol6: 0.0 mg/mL | Sol7: 0.0 mg/mL

CC(C)CC(=O)N[C@@H](C)C(=O)N1CCC[C@H]1C(=O)N[C@@H](C)C(=O)N[C@@H](CCCCNC(=O)CCCCCNC(=O)CC[C@H](NC(=O)CCCCCCCCCCCCCCCCC(=O)O)C(=O)O)C(=O)N1CCC[C@H]1C(=O)N[C@@H](CCC(=O)O)C(=O)N[C@@H](CCC(=O)O)C(=O)N[C@@H](CC(=O)O)C(=O)N[C@@H](C)C(=O)N[C@@H](CO)C(=O)N1CCC[C@H]1C(=O)N[C@@H](CCC(=O)O)C(=O)N[C@@H](CCC(=O)O)C(=O)N[C@@H](CC(C)C)C(=O)N[C@@H](CCC(N)=O)C(=O)N[C@@H](CCCNC(=N)N)C(=O)N[C@@H](Cc1ccc(O)cc1)C(=O)N[C@@H](Cc1ccc(O)cc1)C(=O)N[C@H](C(=O)N[C@@H](CO)C(=O)N[C@@H](CC(C)C)C(=O)N[C@@H](CCCNC(=N)N)C(=O)N[C@@H](Cc1c[nH]cn1)C(=O)N[C@@H](Cc1ccc(O)cc1)C(=O)N[C@@H](Cc1ccc(O)cc1)C(=O)N[C@@H](CCC(N)=O)C(=O)N[C@@H](Cc1c[nH]c2ccccc12)C(=O)N[C@@H](CC(C)C)C(=O)N[C@H](C(=O)N[C@@H](CCCNC(=N)N)C(=O)N[C@@H](CCC(N)=O)C(=O)N[C@@H](CCCNC(=N)N)C(=O)N[C@@H](Cc1ccc(O)cc1)C(N)=O)[C@@H](C)O)C(C)C [Compound 78, N{alpha-4}-(3-methylbutanoyl)-N{epsilon-7}-(6-[(4S)-4-carboxy-4-(17-carboxyheptadecanamido)butanamido]hexanoyl)-[4A,6A,7K,9E,18Q,22V,28Y,29Q,30W,31L]-hPYY(4-36)]
Sol6: 8.1 mg/mL | Sol7: 7.6 mg/mL

CC(C)CC(=O)N[C@@H](C)C(=O)N1CCC[C@H]1C(=O)N[C@@H](CCC(=O)O)C(=O)N[C@@H](CCCCNC(=O)CCCCCNC(=O)CC[C@H](NC(=O)CCCCCCCCCCCCCCCCC(=O)O)C(=O)O)C(=O)N1CCC[C@H]1C(=O)N[C@@H](CCC(=O)O)C(=O)N[C@@H](CCC(=O)O)C(=O)N[C@@H](CC(=O)O)C(=O)N[C@@H](C)C(=O)N[C@H](C(=O)N1CCC[C@H]1C(=O)N[C@@H](CCC(=O)O)C(=O)N[C@@H](CCC(=O)O)C(=O)N[C@@H](CC(C)C)C(=O)N[C@@H](CCC(N)=O)C(=O)N[C@@H](CCCNC(=N)N)C(=O)N[C@@H](Cc1ccc(O)cc1)C(=O)N[C@@H](CCC(N)=O)C(=O)N[C@H](C(=O)N[C@@H](CO)C(=O)N[C@@H](CC(C)C)C(=O)N[C@@H](CCCNC(=N)N)C(=O)N[C@@H](Cc1c[nH]cn1)C(=O)N[C@@H](Cc1ccc(O)cc1)C(=O)N[C@@H](Cc1ccc(O)cc1)C(=O)N[C@@H](CC(N)=O)C(=O)N[C@@H](Cc1c[nH]c2ccccc12)C(=O)N[C@@H](CC(C)C)C(=O)N[C@H](C(=O)N[C@@H](CCCNC(=N)N)C(=O)N[C@@H](CCC(N)=O)C(=O)N[C@@H](CCCNC(=N)N)C(=O)N[C@@H](Cc1ccc(O)cc1)C(N)=O)[C@@H](C)O)C(C)C)[C@@H](C)O [Compound 115, N{alpha-4}-(3-methylbutanoyl)-N{epsilon-7}-(6-[(4S)-4-carboxy-4-(17-carboxyheptadecanamido)butanamido]hexanoyl)-[4A,7K,9E,13T,18Q,21Q,22V,28Y,30W,31L]-hPYY(4-36)]
Sol6: 9.0 mg/mL | Sol7: 8.5 mg/mL

CC[C@H](C)[C@H](NC(=O)[C@H](CCC(=O)O)NC(=O)[C@H](CCC(=O)O)NC(=O)[C@@H]1CCCN1C(=O)[C@H](CCC(=O)O)NC(=O)[C@H](C)NC(=O)[C@H](C)NC(=O)[C@H](C)NC(=O)[C@H](CCC(=O)O)NC(=O)[C@@H]1CCCN1C(=O)[C@H](CCCCNC(=O)CCCCCNC(=O)CC[C@H](NC(=O)CCCCCCCCCCCCCCCCC(=O)O)C(=O)O)NC(=O)[C@H](C)NC(=O)[C@@H]1CCCN1C(=O)[C@H](C)NC(=O)CC(C)C)C(=O)N[C@@H](CCC(N)=O)C(=O)N[C@@H](CCCNC(=N)N)C(=O)N[C@@H](Cc1ccc(O)cc1)C(=O)N[C@@H](Cc1ccc(O)cc1)C(=O)N[C@H](C(=O)N[C@@H](C)C(=O)N[C@@H](CC(C)C)C(=O)N[C@@H](CCCNC(=N)N)C(=O)N[C@@H](Cc1c[nH]cn1)C(=O)N[C@@H](Cc1ccc(O)cc1)C(=O)N[C@@H](Cc1ccc(O)cc1)C(=O)N[C@@H](CC(N)=O)C(=O)N[C@@H](Cc1c[nH]c2ccccc12)C(=O)N[C@@H](CC(C)C)C(=O)N[C@H](C(=O)N[C@@H](CCCNC(=N)N)C(=O)N[C@@H](CCC(N)=O)C(=O)N[C@@H](CCCNC(=N)N)C(=O)N[C@@H](Cc1ccc(O)cc1)C(N)=O)[C@@H](C)O)C(C)C [Compound 116, N{alpha-4}-(3-methylbutanoyl)-N{epsilon-7}-(6-[(4S)-4-carboxy-4-(17-carboxyheptadecanamido)butanamido]hexanoyl)-[4A,6A,7K,9E,10A,11A,13E,17I,18Q,22V,23A,28Y,30W,31L]-hPYY(4-36)]
Sol6: 0.0 mg/mL | Sol7: 0.0 mg/mL

CC(C)CC(=O)N[C@@H](C)C(=O)N1CCC[C@H]1C(=O)N[C@@H](C)C(=O)N[C@@H](CCCCNC(=O)CCCCCNC(=O)CC[C@H](NC(=O)CCCCCCCCCCCCCCCCC(=O)O)C(=O)O)C(=O)N1CCC[C@H]1C(=O)N1CCC[C@H]1C(=O)N[C@@H](CCC(=O)O)C(=O)N[C@@H](CC(=O)O)C(=O)N[C@@H](C)C(=O)N[C@@H](CCC(=O)O)C(=O)N1CCC[C@H]1C(=O)N[C@@H](CCC(=O)O)C(=O)N[C@@H](CCC(=O)O)C(=O)N[C@@H](CC(C)C)C(=O)N[C@@H](CCC(N)=O)C(=O)N[C@@H](CCCNC(=N)N)C(=O)N[C@@H](Cc1ccc(O)cc1)C(=O)N[C@@H](Cc1ccc(O)cc1)C(=O)N[C@H](C(=O)N[C@@H](CO)C(=O)N[C@@H](CC(C)C)C(=O)N[C@@H](CCCNC(=N)N)C(=O)N[C@@H](Cc1c[nH]cn1)C(=O)N[C@@H](Cc1ccc(O)cc1)C(=O)N[C@@H](Cc1ccc(O)cc1)C(=O)N[C@@H](CC(N)=O)C(=O)N[C@@H](Cc1c[nH]c2ccccc12)C(=O)N[C@@H](CC(C)C)C(=O)N[C@H](C(=O)N[C@@H](CCCNC(=N)N)C(=O)N[C@@H](CCC(N)=O)C(=O)N[C@@H](CCCNC(=N)N)C(=O)N[C@@H](Cc1ccc(O)cc1)C(N)=O)[C@@H](C)O)C(C)C [Compound 165, N{alpha-4}-(3-methylbutanoyl)-N{epsilon-7}-(6-[(4S)-4-carboxy-4-(17-carboxyheptadecanamido)butanamido]hexanoyl)-[4A,6A,7K,9P,13E,18Q,22V,28Y,30W,31L]-hPYY(4-36)]
Sol6: 8.8 mg/mL | Sol7: 9.1 mg/mL
